For 44 compounds, Ki and EC50 results are on record in ChEMBL document CHEMBL5325407, “Structure-based development of potent Plasmodium falciparum M1 and M17 aminopeptidase selective and dual inhibitors via S1'-region optimisation” (Eur J Med Chem, 2023).

Test [1] can be described thus: Inhibition of C-terminal 6-His tagged Plasmodium falciparum M17 aminopeptidase (85 to 605 residues) expressed in Escherichia coli BL21 (DE3) cells using H-Leu-NHMec as substrate assessed as apparent inhibition constant preincubated for 10 mins followed by substrate addition by spectrofluorimetric analysis. The conditions noted are these: read-out: Ki(app).
Test [2] is described as follows: Inhibition of C-terminal 6-His tagged Plasmodium falciparum M1 aminopeptidase (195 to 1085 residues) expressed in Escherichia coli BL21(DE3) cells using H-Leu-NHMec as substrate assessed as apparent inhibition constant preincubated for 10 mins followed by substrate addition by spectrofluorimetric analysis. The conditions noted are these: read-out: Ki(app).
In the next test the test system is Plasmodium falciparum. The experiment in a line: Antiplasmodial activity against drug-sensitive Plasmodium falciparum 3D7 infected in Red blood cell assessed as growth inhibition measured after 72 hrs by LDH assay. It is filed as functional, organism-based. The settings on record: 3D7, Erythrocyte.

As a reminder, the EC50 is the midpoint of the concentration-response curve.

On to `O=C(CNc1ccc(F)c(F)c1)NC(C(=O)NO)c1ccc(-c2cc(F)c(F)c(F)c2)cc1` (centres undefined), for which the Ki in test [1] and in test [2] was greater than 500 nM each time.
On to `CN(CC(=O)NC(C(=O)NO)c1ccc(Br)cc1)c1ccccc1` (centres undefined), for which the EC50 in the test on Plasmodium falciparum worked out at 145 nM. For the same compound, the Ki in test [1] was greater than 500 nM; in test [2] it was 18 nM.
As for `CN1CCC1C(=O)NC(C(=O)NO)c1ccc(-c2cc(F)c(F)c(F)c2)cc1` (centres undefined), the Ki in test [1] and in test [2] was greater than 500 nM throughout.
In the case of `CC(C)(C)NC(=O)NC(C(=O)NO)c1ccc(-c2cc(F)c(F)c(F)c2)cc1` (centres undefined), the Ki in test [1] is 430 nM; in test [2], greater than 500 nM.
For the compound `O=C(NC(C(=O)NO)c1ccc(-c2cc(F)c(F)c(F)c2)cc1)C1CCCN1` (centres undefined), in the test with Plasmodium falciparum, the 50% effective concentration (EC50) was 625 nM. Further, the results for the Ki in test [1] and in test [2] were greater than 500 nM and 330 nM, respectively.
On the same counts, the results for `O=C(COc1ccccc1)NC(C(=O)NO)c1ccc(Br)cc1` (centres undefined) are 620 nM, 230 nM and greater than 500 nM.
On to `O=C(NC(C(=O)NO)c1ccc(-c2cc(F)c(F)c(F)c2)cc1)C1CCOC1` (centres undefined), for which, in the test on Plasmodium falciparum, the EC50 was 605 nM. The Ki in test [1] was 307 nM; in test [2], 259 nM.
On to `CCN(CC)CCCC(C)Nc1ccnc2cc(Cl)ccc12` (centres undefined) [CHLOROQUINE], for which, in the test on Plasmodium falciparum, the EC50 came out at 33 nM.
For `CC(C)(N)C(=O)NC(C(=O)NO)c1ccc(-c2cc(F)c(F)c(F)c2)cc1` (centres undefined), the half-maximal effective concentration (EC50) in the test on Plasmodium falciparum was determined as 1200 nM. Also, the Ki was greater than 500 nM in test [1] and 227 nM in test [2].
As to `O=C(CCc1ccccc1)NC(C(=O)NO)c1ccc(-c2cc(F)c(F)c(F)c2)cc1` (centres undefined), in the test on Plasmodium falciparum, the concentration giving a half-maximal response (EC50) was found to be 460 nM. The results for the Ki in test [1] and in test [2] were 70 nM and 246 nM, respectively.
Turning to `O=C(CNc1ccc(F)c(F)c1)NC(C(=O)NO)c1ccc(Br)cc1` (centres undefined), the Ki in test [1] and in test [2] was greater than 500 nM in each case.
In the case of `CN(C)CC(=O)NC(C(=O)NO)c1ccc(-c2cc(F)c(F)c(F)c2)cc1` (centres undefined), the EC50 in the test with Plasmodium falciparum was 480 nM. Further, the Ki in test [1] was greater than 500 nM; in test [2], 185 nM.
On the same counts, the results for `O=C(CN1CCC1)NC(C(=O)NO)c1ccc(-c2cc(F)c(F)c(F)c2)cc1` (centres undefined) are 1800 nM, greater than 500 nM and 263 nM.
`O=C(CNc1cccc(F)c1)NC(C(=O)NO)c1ccc(-c2cc(F)c(F)c(F)c2)cc1` (centres undefined): the Ki in test [1] and in test [2] was greater than 500 nM each time.
`CN1CCCC1C(=O)NC(C(=O)NO)c1ccc(-c2cc(F)c(F)c(F)c2)cc1` (centres undefined): the Ki in test [1] and in test [2] was greater than 500 nM throughout.
Regarding `O=C(CSc1ccccc1)NC(C(=O)NO)c1ccc(-c2cc(F)c(F)c(F)c2)cc1` (centres undefined), the EC50 with Plasmodium falciparum came to 430 nM. For the same compound, the values for the Ki in test [1] and in test [2] were 238 nM and 195 nM, respectively.
`O=C(CN1CCCCC1)NC(C(=O)NO)c1ccc(-c2cc(F)c(F)c(F)c2)cc1` (centres undefined): the Ki in test [1] and in test [2] was greater than 500 nM in each case.
Turning to `CN1CCC(C(=O)NC(C(=O)NO)c2ccc(-c3cc(F)c(F)c(F)c3)cc2)C1` (centres undefined), the Ki in test [1] and in test [2] was greater than 500 nM in each case.
`O=C(NC1CCCC1)NC(C(=O)NO)c1ccc(-c2cc(F)c(F)c(F)c2)cc1` (centres undefined): the EC50 in the test with Plasmodium falciparum turned out to be 370 nM. For the same compound, the values for the Ki in test [1] and in test [2] were 122 nM and 311 nM, respectively.
In the case of `COc1ccc(NCC(=O)NC(C(=O)NO)c2ccc(-c3cc(F)c(F)c(F)c3)cc2)cc1` (centres undefined), the Ki in test [1] and in test [2] was greater than 500 nM in each case.
Take `O=C(CN1CCCC1)NC(C(=O)NO)c1ccc(-c2cc(F)c(F)c(F)c2)cc1` (centres undefined): the 50% effective concentration (EC50) in the test on Plasmodium falciparum was found to be 725 nM. For the same compound, the Ki is greater than 500 nM in test [1] and 456 nM in test [2].
On to `CN(C)C(C)(C)C(=O)NC(C(=O)NO)c1ccc(-c2cc(F)c(F)c(F)c2)cc1` (centres undefined), for which the Ki in test [1] and in test [2] was greater than 500 nM in each case.
`O=C(CNc1cccc(F)c1)NC(C(=O)NO)c1ccc(Br)cc1` (centres undefined): the half-maximal effective concentration (EC50) in the test with Plasmodium falciparum stood at 135 nM. Besides, the Ki in test [1] was greater than 500 nM; in test [2] it was 21 nM.
As for `O=C(CNc1ccccc1F)NC(C(=O)NO)c1ccc(Br)cc1` (centres undefined), the EC50 in the test with Plasmodium falciparum worked out at 155 nM. Moreover, the Ki is greater than 500 nM in test [1] and 26 nM in test [2].
Take `O=C(CNc1ccc(F)cc1)NC(C(=O)NO)c1ccc(-c2cc(F)c(F)c(F)c2)cc1` (centres undefined): the Ki in test [1] and in test [2] was greater than 500 nM throughout.
On to `O=C(CCc1ccccc1)NC(C(=O)NO)c1ccc(Br)cc1` (centres undefined), for which the concentration giving a half-maximal response (EC50) in the test with Plasmodium falciparum came to 205 nM. Moreover, the results for the Ki in test [1] and in test [2] were 14 nM and 222 nM, respectively.
With `O=C(CNc1cccc(F)c1)NC(C(=O)NO)c1ccc(Cl)cc1` (centres undefined), the EC50 in the test with Plasmodium falciparum turned out to be 175 nM. The Ki is greater than 500 nM in test [1] and 49 nM in test [2].
As to `O=C(CNc1ccc2cc[nH]c2c1)NC(C(=O)NO)c1ccc(Br)cc1` (centres undefined), in the test with Plasmodium falciparum, the EC50 is 155 nM. Further, the Ki in test [1] is greater than 500 nM; in test [2], 35 nM.
For the compound `O=C(CNc1ccccc1)NC(C(=O)NO)c1ccc(Br)cc1` (centres undefined), in the test with Plasmodium falciparum, the EC50 was 175 nM. The Ki in test [1] is greater than 500 nM; in test [2], 36 nM.
With `CC(C)NC(=O)NC(C(=O)NO)c1ccc(-c2cc(F)c(F)c(F)c2)cc1` (centres undefined), in the test on Plasmodium falciparum, the concentration giving a half-maximal response (EC50) was 285 nM. Moreover, the Ki is 120 nM in test [1] and greater than 500 nM in test [2].
For `CN1CC(C(=O)NC(C(=O)NO)c2ccc(-c3cc(F)c(F)c(F)c3)cc2)C1` (centres undefined), the Ki in test [1] and in test [2] was greater than 500 nM in each case.
Consider `O=C(CNc1ccc2cc[nH]c2c1)NC(C(=O)NO)c1ccc(-c2cc(F)c(F)c(F)c2)cc1` (centres undefined), for which the EC50 with Plasmodium falciparum is 220 nM. Also, the Ki in test [1] was greater than 500 nM; in test [2], 146 nM.
For the compound `COc1cccc(NCC(=O)NC(C(=O)NO)c2ccc(-c3cc(F)c(F)c(F)c3)cc2)c1` (centres undefined), the Ki in test [1] and in test [2] was greater than 500 nM each time.
Take `O=C(COc1ccccc1)NC(C(=O)NO)c1ccc(-c2cc(F)c(F)c(F)c2)cc1` (centres undefined): the EC50 in the test with Plasmodium falciparum stood at 1450 nM. Besides, the Ki in test [1] worked out at 137 nM; in test [2], 390 nM.
Take `O=C(NC(C(=O)NO)c1ccc(-c2cc(F)c(F)c(F)c2)cc1)C1CNC1` (centres undefined): the Ki in test [1] and in test [2] was greater than 500 nM each time.
As to `CN(C)C(C)(C)CC(=O)NC(C(=O)NO)c1ccc(-c2cc(F)c(F)c(F)c2)cc1` (centres undefined), in the test on Plasmodium falciparum, the EC50 amounted to 825 nM. The Ki in test [1] was found to be 293 nM; in test [2], 500 nM.
Turning to `CN(CC(=O)NC(C(=O)NO)c1ccc(-c2cc(F)c(F)c(F)c2)cc1)c1ccccc1` (centres undefined), the Ki in test [1] and in test [2] was greater than 500 nM throughout.
As for `O=C(CNc1ccccc1)NC(C(=O)NO)c1ccc(Cl)cc1` (centres undefined), in the test on Plasmodium falciparum, the EC50 amounted to 200 nM. In addition, the Ki was greater than 500 nM in test [1] and 79 nM in test [2].
Take `O=C(CNc1cc(F)cc(F)c1)NC(C(=O)NO)c1ccc(Br)cc1` (centres undefined): the EC50 with Plasmodium falciparum worked out at 250 nM. Besides, the results for the Ki in test [1] and in test [2] were greater than 500 nM and 16 nM, respectively.
Consider `O=C(NC(C(=O)NO)c1ccc(-c2cc(F)c(F)c(F)c2)cc1)C1CCNC1` (centres undefined), for which the Ki in test [1] and in test [2] was greater than 500 nM each time.
`COc1ccccc1NCC(=O)NC(C(=O)NO)c1ccc(-c2cc(F)c(F)c(F)c2)cc1` (centres undefined): the Ki in test [1] and in test [2] was greater than 500 nM throughout.
For the compound `CC(C)(C)C(=O)NC(C(=O)NO)c1ccc(-c2cc(F)c(F)c(F)c2)cc1` (centres undefined), the concentration giving a half-maximal response (EC50) in the test on Plasmodium falciparum was 340 nM.
With `O=C(NC(C(=O)NO)c1ccc(Br)cc1)c1cc2ccccc2[nH]1` (centres undefined), the Ki in test [1] and in test [2] was greater than 500 nM in each case.
On to `O=C(NC(C(=O)NO)c1ccc(-c2cc(F)c(F)c(F)c2)cc1)C1CCN1` (centres undefined), for which the Ki in test [1] and in test [2] was greater than 500 nM throughout.
